Measured values from PMC4569258.
Entries after “also recorded” stand apart in the source; their conditions may differ. Like-named read-outs stand apart in the source and are kept apart here.

Experiments:
[1] = molecular target: T1, glucocorticoid receptor (GR) (Homo sapiens, UniProt P04150); assay: GR gene reporter assay in AZ-GR cells; format: cell-based; details: for IC50 / effect on dexamethasone-inducible transcriptional activity of GR, in words: antagonist mode; for IC50: in presence of DEX 100 nM; for effect on dexamethasone-inducible transcriptional activity of GR, in words: DEX 100 nM
T1 sequence (P04150 1-777): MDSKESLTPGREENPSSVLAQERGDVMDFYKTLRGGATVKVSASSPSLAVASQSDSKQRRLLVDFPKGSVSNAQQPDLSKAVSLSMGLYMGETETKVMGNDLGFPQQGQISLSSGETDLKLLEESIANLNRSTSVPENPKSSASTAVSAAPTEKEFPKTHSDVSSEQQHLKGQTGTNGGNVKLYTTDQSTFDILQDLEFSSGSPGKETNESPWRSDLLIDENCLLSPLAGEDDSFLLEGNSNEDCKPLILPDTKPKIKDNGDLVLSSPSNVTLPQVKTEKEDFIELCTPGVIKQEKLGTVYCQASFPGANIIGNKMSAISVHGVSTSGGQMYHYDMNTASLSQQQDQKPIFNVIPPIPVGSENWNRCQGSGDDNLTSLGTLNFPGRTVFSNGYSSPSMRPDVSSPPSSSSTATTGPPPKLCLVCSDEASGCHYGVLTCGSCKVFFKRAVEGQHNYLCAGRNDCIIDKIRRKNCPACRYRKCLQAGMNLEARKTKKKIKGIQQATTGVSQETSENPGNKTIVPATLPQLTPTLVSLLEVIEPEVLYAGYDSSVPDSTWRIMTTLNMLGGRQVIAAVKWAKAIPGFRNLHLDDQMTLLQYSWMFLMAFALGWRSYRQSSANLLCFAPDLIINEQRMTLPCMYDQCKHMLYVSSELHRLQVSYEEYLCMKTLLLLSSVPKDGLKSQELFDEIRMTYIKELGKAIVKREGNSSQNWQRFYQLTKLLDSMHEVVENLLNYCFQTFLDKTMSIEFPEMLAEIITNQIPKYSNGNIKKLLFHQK
Experimental: Transcriptional activity of GR was assessed in human gene reporter cell line AZ-GR incubated for 24 h with tested compounds. […] The vehicle was DMSO (0.1% v/v). […] Treatments were performed in triplicates.

[2] = molecular target: T2, aryl hydrocarbon receptor (AhR) (Homo sapiens, UniProt P35869); assay: cell-based
T2 sequence (P35869 11-848): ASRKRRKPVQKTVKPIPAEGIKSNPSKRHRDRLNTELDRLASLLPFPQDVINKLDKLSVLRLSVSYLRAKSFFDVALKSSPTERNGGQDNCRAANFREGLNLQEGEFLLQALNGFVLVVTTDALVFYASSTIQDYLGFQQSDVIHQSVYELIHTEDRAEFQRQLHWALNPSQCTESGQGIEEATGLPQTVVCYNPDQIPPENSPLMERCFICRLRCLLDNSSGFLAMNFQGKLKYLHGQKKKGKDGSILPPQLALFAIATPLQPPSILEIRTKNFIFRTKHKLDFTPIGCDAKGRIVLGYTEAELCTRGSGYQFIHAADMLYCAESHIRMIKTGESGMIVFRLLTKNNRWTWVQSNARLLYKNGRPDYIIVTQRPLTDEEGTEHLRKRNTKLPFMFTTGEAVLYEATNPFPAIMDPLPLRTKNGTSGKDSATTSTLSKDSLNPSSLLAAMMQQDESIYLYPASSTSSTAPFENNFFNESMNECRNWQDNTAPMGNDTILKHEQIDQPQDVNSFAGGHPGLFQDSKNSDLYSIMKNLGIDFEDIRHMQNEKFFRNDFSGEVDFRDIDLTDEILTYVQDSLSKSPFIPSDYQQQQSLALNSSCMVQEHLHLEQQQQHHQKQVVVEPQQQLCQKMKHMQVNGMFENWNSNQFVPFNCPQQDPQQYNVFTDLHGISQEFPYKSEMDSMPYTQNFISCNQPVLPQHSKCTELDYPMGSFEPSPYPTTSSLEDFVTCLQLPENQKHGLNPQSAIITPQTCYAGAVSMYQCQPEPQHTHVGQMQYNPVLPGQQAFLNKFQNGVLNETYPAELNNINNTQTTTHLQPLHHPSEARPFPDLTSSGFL
Experimental: (§5) A stably transfected gene reporter cell line AZ-AHR, derived from human hepatoma HepG2 cells transfected with a construct containing several AhR binding sites upstream of a luciferase reporter gene, was used for assessment of AhR transcriptional activity [20].
(§6) Transcriptional activity of AhR was assessed in human gene reporter cell line AZ-AHR incubated for 24 h with tested compounds.
(§7) AZ-AHR cells were seeded in 96-well plates and stabilized for 16 h and then incubated for 24 h with enantiopure forms of atorvastatin, rosuvastatin and fluvastatin in concentration ranging from 10^−10 M to 10^−4 M in the absence (agonist mode–upper panels) or presence (antagonist mode–lower panels) of dioxin (TCDD; 5 nM). The vehicle was DMSO (0.1% v/v). After the treatments, cells were lysed and luciferase activity was measured. Treatments were performed in triplicates. Data are expressed as a fold induction of luciferase activity over control cells (agonist mode) or as a percentage of maximal activation attained by TCDD (antagonist mode). The values of EC50 and IC50 from n independent cell passages were calculated where appropriate and the average values are indicated in plots. Representative gene reporter assays are shown.

[3] = system: CYP3A4 protein; details: HH59, HH61, HH63; 48 h
Experimental: (§8) Total protein extracts were prepared from cells cultured on 6-well plates. Cells were washed twice with ice-cold PBS and scraped into 1 ml of PBS. The suspension was centrifuged (4500 rpm/5 min/4°C) and the pellet was resuspended in 150 μl of ice-cold lysis buffer (150 mM NaCl; 10 mM Tris pH 7.2; 0.1% (w/v) SDS; anti-protease cocktail, 1% (v/v) Triton X-100; anti-phosphatase cocktail, 1% (v/v) sodium deoxycholate; 5 mM EDTA). The mixture was vortexed and incubated for 10 min on ice and then centrifuged (15000 rpm/13 min/4°C). Supernatant was collected and the protein content was determined by the Bradford reagent.
All reagents used for running the simple western by Sally Sue ^TM were obtained from ProteinSimple (San Jose, California) and prepared according to manufacturer’s recommendations (http://www.proteinsimple.com/sally_sue.html). […] Antibody diluent, goat anti-rabbit secondary antibody, and goat anti-mouse secondary antibody were purchased from ProteinSimple. The capillaries, containing a proprietary UV-activated chemical linked reagent and 384-well plates were obtained from ProteinSimple. […] The resulting chemiluminescent signal was detected and quantified by the Compass Software version 2.6.5.0 (ProteinSimple). For quantitative data analysis, the CYPs signals were normalized to β-actin as a loading control.

[4] = molecular target: T2, aryl hydrocarbon receptor (AhR); assay: AhR gene reporter assay in AZ-AHR cells; details: for IC50: AhR antagonist IC50, antagonist mode, in presence of TCDD 5 nM
Experimental: as §5, §6, §7

[5] = molecular target: T3, pregnane X receptor (PXR) (Homo sapiens, UniProt O75469); details: for effect on rifampicin-inducible PXR transcriptional activity, in words: antagonist mode, RIF 10 μM, 24 h; for rifampicin-inducible luciferase activity, minimum of U-shaped curve: with RIF 10 μM, concentrations range 10^−8 M-10^−6 M
T3 sequence (O75469 1-434): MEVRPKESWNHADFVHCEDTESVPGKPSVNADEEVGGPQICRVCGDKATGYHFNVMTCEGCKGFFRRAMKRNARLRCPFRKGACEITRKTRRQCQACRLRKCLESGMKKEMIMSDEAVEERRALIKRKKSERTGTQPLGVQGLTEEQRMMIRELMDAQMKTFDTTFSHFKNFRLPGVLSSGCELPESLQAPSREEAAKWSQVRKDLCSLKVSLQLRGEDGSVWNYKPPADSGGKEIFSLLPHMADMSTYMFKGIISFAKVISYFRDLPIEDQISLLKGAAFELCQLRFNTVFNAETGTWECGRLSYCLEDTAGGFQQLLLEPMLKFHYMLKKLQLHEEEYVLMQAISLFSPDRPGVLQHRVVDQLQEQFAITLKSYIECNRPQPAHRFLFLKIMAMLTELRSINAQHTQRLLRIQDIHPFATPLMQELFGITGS

[6] = system: CYP2A6 mRNA; details: for induction of CYP2A6 mRNA: 10 μM
[7] = system: CYP2B6 mRNA; details: 10 μM
[8] = system: CYP2A6 protein; details: 10 μM
Experimental: as §8
(§9) All reagents used for running the simple western by Sally Sue ^TM were obtained from ProteinSimple (San Jose, California) and prepared according to manufacturer’s recommendations (http://www.proteinsimple.com/sally_sue.html). […] Antibody diluent, goat anti-rabbit secondary antibody, and goat anti-mouse secondary antibody were purchased from ProteinSimple. The capillaries, containing a proprietary UV-activated chemical linked reagent and 384-well plates were obtained from ProteinSimple. All samples and reagents were prepared according to the recommended ProteinSimple manual. Target proteins were identified using primary antibodies and immunoprobed using a horseradish peroxidase-conjugated secondary antibody and chemiluminescent substrate. The resulting chemiluminescent signal was detected and quantified by the Compass Software version 2.6.5.0 (ProteinSimple). For quantitative data analysis, the CYPs signals were normalized to β-actin as a loading control.

[9] = system: CYP2B6 protein; details: 10 μM
Experimental: as §8, §9

[10] = MTT cytotoxicity test in LS180 cells; format: cell-based; details: human, LS180 colon adenocarcinoma cells
Experimental: (§1) Prior to gene reporter assays, we examined the cytotoxicity of tested compounds in AZ-AHR, AZ-GR and LS180 cell lines. For this purpose, the cells were incubated for 24 h with individual enantiomers of atorvastatin, fluvastatin and rosuvastatin at concentrations ranging from 100 pM to 100 μM. The vehicle was DMSO (0.1% v/v). After the treatment, a conventional MTT test was performed and the values of IC50 were calculated.
(§2) Fig 2 Cytotoxicity of statin enantiomers in human cancer cell lines. […] After the treatment, a conventional MTT test was performed and absorbance was measured at 540 nm. Treatments were performed in triplicates.

[11] = MTT cytotoxicity test in AZ-AHR cells; format: cell-based; details: human
Experimental: as §1, §2

[12] = MTT cytotoxicity test in AZ-GR cells; format: cell-based; details: human, AZ-GR cells (HeLa-derived GR luciferase reporter cell line)
Experimental: as §1, §2

[13] = system: CYP1A1 mRNA; assay: CYP1A1 mRNA (qRT-PCR) in primary human hepatocytes; format: cell-based; details: 5 nM
Experimental: (§3) Cells were cultured in serum-free medium.
(§4) Measurements were performed in triplicates.

[14] = system: CYP1A1 protein; assay: CYP1A1 protein (Simple Western) in primary human hepatocytes; format: cell-based; details: 5 nM
Experimental: as §3

[15] = system: CYP1A2 mRNA; assay: CYP1A2 mRNA (qRT-PCR) in primary human hepatocytes; format: cell-based; details: 5 nM
Experimental: as §3, §4

[16] = system: CYP1A2 protein; assay: CYP1A2 protein (Simple Western) in primary human hepatocytes; format: cell-based; details: 5 nM
Experimental: as §3

## CC(C)c1nc(N(C)S(C)(=O)=O)nc(-c2ccc(F)cc2)c1C=CC(O)CC(O)CC(=O)O (stereo not drawn) [3S5R-rosuvastatin, 3S5R- rosuvastatin]
[1]; 24 h
  IC50: > 100 µM
[2]
  EC50: > 100 µM
[3]
  induction of CYP3A4 protein, in words: significant induction of CYP3A4 protein
[4]; 24 h
  IC50: > 100 µM
[5]
  effect on rifampicin-inducible PXR transcriptional activity, in words: not influenced

## C[C@@H]1C[C@H]2[C@@H]3CCC4=CC(=O)C=C[C@]4(C)[C@@]3(F)[C@@H](O)C[C@]2(C)[C@@]1(O)C(=O)CO [dexamethasone]
[1]; 100 nM, eight consecutive passages, vs DMSO-treated cells
  average induction of GR-dependent luciferase activity: 32 fold

## CO[C@H]1/C=C/O[C@@]2(C)Oc3c(C)c(O)c4c(O)c(c(/C=N/N5CCN(C)CC5)c(O)c4c3C2=O)NC(=O)/C(C)=C\C=C\[C@H](C)[C@H](O)[C@@H](C)[C@@H](O)[C@@H](C)[C@H](OC(C)=O)[C@@H]1C [rifampicin]
[6]; culture HH59, 24 h
  induction of CYP2A6 mRNA: 2.4 fold
[6]; culture HH61, 24 h
  induction of CYP2A6 mRNA: 5.2 fold
[6]; culture HH63, 24 h
  induction of CYP2A6 mRNA: 7.1 fold
[7]; culture HH59, 24 h
  induction of CYP2B6 mRNA: 5.8 fold
[7]; culture HH61, 24 h
  induction of CYP2B6 mRNA: 16 fold
[7]; culture HH63, 24 h
  induction of CYP2B6 mRNA: 6.9 fold
[8]; culture HH59, 48 h
  induction of CYP2A6 protein: 4.8 fold
[8]; culture HH61, 48 h
  induction of CYP2A6 protein: 7.3 fold
[8]; culture HH63, 48 h
  induction of CYP2A6 protein: 2.3 fold
[9]; culture HH59, 48 h
  induction of CYP2B6 protein: 8.4 fold
[9]; culture HH61, 48 h
  induction of CYP2B6 protein: 5.9 fold
[9]; culture HH63, 48 h
  induction of CYP2B6 protein: 7.7 fold

## CC(C)c1nc(N(C)S(C)(=O)=O)nc(-c2ccc(F)cc2)c1C=CC(O)CC(O)CC(=O)O (stereo not drawn) [3S5S-rosuvastatin]
[1]; 24 h
  IC50: > 100 µM
[2]
  EC50: 17.5 ± 0.4 µM
[4]; 24 h
  IC50: > 100 µM
[4]; agonist mode
  efficacy of AhR activation, % of induction attained by TCDD: about 0.1%
[4]; agonist mode, 24 h
  effect on AhR-dependent luciferase activity (agonist mode), in words: dose-dependently increased luciferase activity
[5]
  effect on rifampicin-inducible PXR transcriptional activity, in words: U-shaped curve
  rifampicin-inducible luciferase activity, minimum of U-shaped curve: 60 % of rifampicin value

## CC(C)c1nc(N(C)S(C)(=O)=O)nc(-c2ccc(F)cc2)c1C=CC(O)CC(O)CC(=O)O (stereo not drawn) [3R5R-rosuvastatin, 3R5R- rosuvastatin]
[1]; agonist mode, 24 h
  EC50: > 100 µM
[1]; 24 h
  IC50: > 100 µM
[2]
  EC50: > 100 µM
[10]
  IC50 at 24 h: > 100 µM
[11]
  IC50 at 24 h: > 100 µM
[4]; 24 h
  IC50: > 100 µM
[5]
  effect on rifampicin-inducible PXR transcriptional activity, in words: U-shaped curve
  rifampicin-inducible luciferase activity, minimum of U-shaped curve: 60 % of rifampicin value
[12]
  IC50 at 24 h: > 100 µM

## CC(C)n1c(C=CC(O)CC(O)CC(=O)O)c(-c2ccc(F)cc2)c2ccccc21 (stereo not drawn) [3S5S-fluvastatin]
[2]
  EC50: 14.7 ± 0.9 µM
[10]
  IC50 at 24 h: > 100 µM
[11]
  IC50 at 24 h: > 100 µM
[4]; 24 h
  IC50: > 100 µM
[4]; agonist mode, 24 h
  effect on AhR-dependent luciferase activity (agonist mode), in words: slightly increased luciferase activity
[5]; 100 μM concentration, agonist mode
  efficacy: average induction of PXR luciferase activity: around 3 fold
[12]
  IC50 at 24 h: > 100 µM

## Clc1cc2c(cc1Cl)Oc1cc(Cl)c(Cl)cc1O2 [TCDD, 2,3,7,8-tetrachlorodibenzo-p-dioxin]
[13]; culture HH59, 24 h
  induction of CYP1A1 mRNA: 98 fold
[13]; culture HH61, 24 h
  induction of CYP1A1 mRNA: 339 fold
[13]; culture HH63, 24 h
  induction of CYP1A1 mRNA: 278 fold
[14]; culture HH59, 48 h
  induction of CYP1A1 protein: 35 fold
[14]; culture HH61, 48 h
  induction of CYP1A1 protein: 220 fold
[14]; culture HH63, 48 h
  induction of CYP1A1 protein: 35 fold
[15]; culture HH59, 24 h
  induction of CYP1A2 mRNA: 110 fold
[15]; culture HH61, 24 h
  induction of CYP1A2 mRNA: 143 fold
[15]; culture HH63, 24 h
  induction of CYP1A2 mRNA: 45 fold
[4]; 5 nM, eight consecutive passages, vs DMSO-treated cells
  average induction of AhR-dependent luciferase activity: 1107 fold
[16]; culture HH59, 48 h
  induction of CYP1A2 protein: 19 fold
[16]; culture HH61, 48 h
  induction of CYP1A2 protein: 83 fold
[16]; culture HH63, 48 h
  induction of CYP1A2 protein: 50 fold

## CC(C)c1nc(N(C)S(C)(=O)=O)nc(-c2ccc(F)cc2)c1C=CC(O)CC(O)CC(=O)O (stereo not drawn) [3R5S-rosuvastatin]
[6]; HH59, HH61, HH63, 24 h, 1, 10, 30 μM
  induction of CYP2A6 mRNA, in words: weak increase of CYP2A6 mRNA in culture HH61; also recorded: induced CYP2A6 mRNA
[1]; 24 h
  effect on dexamethasone-inducible transcriptional activity of GR, in words: decreased
  IC50: 89.7 ± 12.6 µM
[2]
  EC50: > 100 µM
[3]
  induction of CYP3A4 protein, in words: significant induction of CYP3A4 protein
[4]; 24 h
  IC50: 53.5 ± 60.4 µM
[4]; antagonist mode, TCDD 5 nM, 24 h
  effect on TCDD-inducible transcriptional activity of AhR, in words: dose-dependently inhibited
[5]
  effect on rifampicin-inducible PXR transcriptional activity, in words: inverse U-shaped curve

## CC(C)c1c(C(=O)Nc2ccccc2)c(-c2ccccc2)c(-c2ccc(F)cc2)n1CC[C@@H](O)C[C@@H](O)CC(=O)O [3R5R-atorvastatin]
[1]; 24 h
  effect on dexamethasone-inducible transcriptional activity of GR, in words: decreased
